Source: patent US12686711B2, “DARIC interleukin receptors” (Regeneron Pharmaceuticals, Inc., priority 2017, dated 2026)

Key:
[1] = target or test not stated; chemically modified non-immunosuppressive rapamycin analogue; cited from earlier work
donor PBMCs = experiment: IFNγ production in IL-12 pre-treated transduced and untransduced donor PBMCs; type: cell-based; conditions: untransduced controls and IL-18R-DARIC-GFP transduced cells; pre-treated 50 ng/mL human recombinant IL-12 for 24 hours, then medium with 100 ng/mL human recombinant IL-18; FIG. 2
Description: IL-18 receptor (IL-18R) DARIC binding and signaling components were designed, constructed, and verified. An IL-18R DARIC lentiviral vector was constructed comprising an MNDU3 promoter operably linked to a polynucleotide encoding: a DARIC signaling component (CD8α-signal peptide, an FRB variant (T82L), and an IL-18R1 transmembrane and signaling domain); a P2A sequence; and a DARIC binding component (an Igκ-signal peptide, an FKBP12 domain, and a IL-18RAP transmembrane and signaling domain). An IL-18R DARIC-GFP lentiviral vector was constructed by appending another polynucleotide encoding a P2A sequence and GFP to the to the polynucleotide encoding the IL-18R1 signaling domain in aforementioned vector. See, e.g., SEQ ID NOs: 1-4.
Donor PBMCs were transduced with LVV encoding IL-18R-DARIC-GFP. Transduced PBMCs and untransduced control PBMCs were pre-treated with 50 ng/mL human recombinant IL-12 for 24 hours. The treated cells were washed and cultured in medium only, medium with 100 ng/mL human recombinant IL-18 or medium with 1 nM rapamycin. […] FIG. 2.

Compound: CO[C@H]1[C@@H](O)[C@H](C)C[C@H](C)/C=C/C=C/C=C(\C)[C@@H](c2c[nH]c3c(C)cccc23)C[C@@H]2CC[C@@H](C)[C@@](O)(O2)C(=O)C(=O)N2CCCC[C@H]2C(=O)O[C@H]([C@H](C)C[C@@H]2CC[C@@H](O)[C@H](OC)C2)C[C@H](O)[C@H](C)/C=C(\C)[C@H]1O [AP21967, C-16-(S)-7-methylindolerapamycin]
- IC50 [1]: 0.01 µM

Compound: IL-18: human recombinant IL-18 cytokine used as positive control
- IFNγ production when cultured in IL-18 (donor PBMCs): increased IFNγ production in both untransduced controls and cells transduced with IL-18R-DARIC-GFP
